Tests used:
Format in all cases: in vivo
[1] = system: Mexican bean beetle (MBB) larvae; experiment: Spray test, Mexican bean beetle (MBB) larvae on bean leaves; settings: approx. 48 h after spraying
Description: (§1) Three 5 oz paper cups containing Henderson dwarf lima bean plants and one 5 oz paper cup containing Orange Gem nasturtiums, all growing in vermiculite, are placed on a turntable and sprayed to thorough wetness with 25 ml of a solution of the candidate chemical at the appropriate concentration. Nasturtiums were already infested with 50-100 bean aphids (BA). A bean plant in one paper cup was already infested with 50-100 two-spotted mites (TSM). Leaves from the two remaining bean plants are removed following spraying and placed in disposable petri dishes with 5 southern armyworm (SA) larvae in one petri dish, and 5 Mexican bean beetle (MBB) larvae in the other petri dish. The rating is done approximately 48 hours after spraying as follows:
(§2) So as to obtain more meaningful results, all tests are performed at the same time of day, whenever possible, usually in the forenoon. Temperature,illumination and humidity are the same in all tests. Atmospheric pressure is not controlled.
(§3) Results obtained with the novel insecticides of this invention at various concentrations of active chemical are tabulated below. The ratings given are for averages of three or more replicates. The oral lethal dose for 50 percent kill of laboratory rats is also recorded in the table. In conducting the toxicity tests on rats, 0.01 g of active chemical per ml in corn oil is employed as an additive to the diet of the animals.

two-spotted mites (TSM) = experiment: Spray test, two-spotted mites (TSM) on bean plants; settings: approx. 48 h after spraying
Description: as §1, §2, §3

bean aphids (BA) = experiment: Spray test, bean aphids (BA) on nasturtiums; settings: approx. 48 h after spraying
Description: as §1, §2, §3

[2] = system: Southern Corn Rootworm (SCR); experiment: Southern Corn Rootworm (SCR) soil treatment test, root feeding damage on corn; design: scale not given here; settings: nine days after treatment
Description: Three 5 oz paper cups planted each with one kernel of DeKalb XL-361 corn are treated two days after planting with 10 ml of a 125 ppm solution of the candidate compound. Compounds with high efficacy are treated at lower concentrations. The experiment is a 4×5 factorial in a randomized complete block design with three replications. The tests are evaluated nine days after treatment. The roots are inspected under a dissecting microscope and rated as follows:
as §2, §3

[3] = system: southern armyworm (SA) larvae; experiment: Spray test, southern armyworm (SA) larvae on bean leaves; settings: approx. 48 h after spraying
Description: as §1, §2, §3

Compound | MBB rating (larvae dead) ([1]; 500 ppm) | TSM rating (dead adults) (two-spotted mites (TSM); 500 ppm) | BA rating (dead) (bean aphids (BA); 2 ppm) | BA rating (dead) (bean aphids (BA); 4 ppm) | BA rating (dead) (bean aphids (BA); 8 ppm) | BA rating (dead) (bean aphids (BA); 15 ppm) | BA rating (dead) (bean aphids (BA); 31 ppm) | BA rating (dead) (bean aphids (BA); 62 ppm) | BA rating (dead) (bean aphids (BA); 125 ppm) | BA rating (dead) (bean aphids (BA); 250 ppm) | BA rating (dead) (bean aphids (BA); 500 ppm) | SCR Rating (root feeding damage) ([2]; 100 ppm) | SA rating (larvae dead) ([3]; 500 ppm) | further results
C#CCSc1nc(CCC)nn1C(=O)N(C)C [R=2-propynyl, R'=propyl] | 5 (100% larvae dead) | 0 (no dead adults) | 0 (none dead) | 0 (none dead) | 1 (1-25% dead) | 5 (100% dead) | 5 (100% dead) | 5 (100% dead) | 5 (100% dead) | 5 (100% dead) | 5 (100% dead) | 3.7 | 5 (100% larvae dead) | MBB rating (larvae dead) ([1]; 15 ppm): 0 (no larvae dead); MBB rating (larvae dead) ([1]; 31 ppm): 1 (1 -25% larvae dead); MBB rating (larvae dead) ([1]; 62 ppm): 3 (51-75% larvae dead); MBB rating (larvae dead) ([1]; 125 ppm): 5 (100% larvae dead); MBB rating (larvae dead) ([1]; 250 ppm): 5 (100% larvae dead); SCR Rating (root feeding damage) ([2]; 25 ppm): 1.3; SCR Rating (root feeding damage) ([2]; 50 ppm): 2.7; SA rating (larvae dead) ([3]; 15 ppm): 0 (no larvae dead); SA rating (larvae dead) ([3]; 31 ppm): 0 (no larvae dead); SA rating (larvae dead) ([3]; 62 ppm): 0 (no larvae dead); SA rating (larvae dead) ([3]; 125 ppm): 0 (no larvae dead); SA rating (larvae dead) ([3]; 250 ppm): 0 (no larvae dead)
C=CC(C)Sc1nc(C(C)(C)C)nn1C(=O)N(C)C (centres unmarked) [R=1-methylallyl, R'=tert.butyl] | 5 (100% larvae dead) | 0 (no dead adults) |  |  |  | 5 (100% dead) | 5 (100% dead) | 5 (100% dead) | 5 (100% dead) | 5 (100% dead) | 5 (100% dead) |  | 4 (76-99% larvae dead) | MBB rating (larvae dead) ([1]; 15 ppm): 0 (no larvae dead); MBB rating (larvae dead) ([1]; 31 ppm): 0 (no larvae dead); MBB rating (larvae dead) ([1]; 62 ppm): 0 (no larvae dead); MBB rating (larvae dead) ([1]; 125 ppm): 1 (1 -25% larvae dead); MBB rating (larvae dead) ([1]; 250 ppm): 1 (1 -25% larvae dead); SA rating (larvae dead) ([3]; 15 ppm): 0 (no larvae dead); SA rating (larvae dead) ([3]; 31 ppm): 0 (no larvae dead); SA rating (larvae dead) ([3]; 62 ppm): 0 (no larvae dead); SA rating (larvae dead) ([3]; 125 ppm): 0 (no larvae dead); SA rating (larvae dead) ([3]; 250 ppm): 0 (no larvae dead)
C=C(Br)CSc1nc(C(C)(C)C)nn1C(=O)N(C)C | 2 (26-50% larvae dead) | 4 (76-99% dead adults) |  | 4 (76-99% dead) | 4 (76-99% dead) | 5 (100% dead) | 5 (100% dead) | 5 (100% dead) | 5 (100% dead) | 5 (100% dead) | 5 (100% dead) |  | 0 (no larvae dead) | TSM rating (dead adults) (two-spotted mites (TSM); 15 ppm): 0 (no dead adults); TSM rating (dead adults) (two-spotted mites (TSM); 31 ppm): 0 (no dead adults); TSM rating (dead adults) (two-spotted mites (TSM); 62 ppm): 0 (no dead adults); TSM rating (dead adults) (two-spotted mites (TSM); 125 ppm): 0 (no dead adults); TSM rating (dead adults) (two-spotted mites (TSM); 250 ppm): 0 (no dead adults)
C=C(Br)CSc1nc(C2CC2)nn1C(=O)N(C)C | 2 (26-50% larvae dead) | 2 (26-50% dead adults) |  | 0 (none dead) | 2 (26-50% dead) | 4 (76-99% dead) | 5 (100% dead) | 5 (100% dead) | 5 (100% dead) | 5 (100% dead) | 5 (100% dead) | 4.3 | 0 (no larvae dead) | SCR Rating (root feeding damage) ([2]; 50 ppm): 0.3
CN(C)C(=O)n1nc(C(C)(C)C)nc1SCC(Cl)=C(Cl)Cl [R=2,3,3-trichloro-allyl, R'=tert.butyl] | 0 (no larvae dead) | 0 (no dead adults) | 3 (51-75% dead) | 3 (51-75% dead) | 4 (76-99% dead) | 5 (100% dead) | 5 (100% dead) | 5 (100% dead) | 5 (100% dead) | 5 (100% dead) | 4 (76-99% dead) |  | 0 (no larvae dead) | 
C=C(Cl)CSc1nc(C(C)(C)C)nn1C(=O)N(C)C [R=2-chloroallyl, R'=tert.butyl] | 2 (26-50% larvae dead) | 0 (no dead adults) | 4 (76-99% dead) | 4 (76-99% dead) | 4 (76-99% dead) | 5 (100% dead) | 5 (100% dead) | 5 (100% dead) | 5 (100% dead) | 5 (100% dead) | 5 (100% dead) |  | 0 (no larvae dead) | 
C=C(C)CSc1nc(C(C)(C)C)nn1C(=O)N(C)C [R=2-methylallyl, R'=tert.butyl] | 2 (26-50% larvae dead) | 0 (no dead adults) | 1 (1-25% dead) | 4 (76-99% dead) | 4 (76-99% dead) | 5 (100% dead) | 5 (100% dead) | 5 (100% dead) | 5 (100% dead) | 5 (100% dead) | 5 (100% dead) | 1.3 | 0 (no larvae dead) | 

Reference: patent US4160839A, “Carbamyltriazole insecticides” (priority 1976, dated 1979)
